Assays:
[1] = uptake of carbon monoxide; format: binding
From the text: Accordingly, the invention further provides a method for removing carbon monoxide from a liquid or vapour containing carbon monoxide by contacting the liquid or vapour with cucurbit[5]uril.

[2] = solubility in acid and salt solutions; format: physicochemical; conditions: 0.1M Na2SO4 solution
From the text: All of the cucurbit[n]urils that have been observed are apparently soluble in acid solutions. Cucurbit[5 or 7 or 8 or 10]uril have been purified by successive recrystallisations from acid solutions. Because of the similar nature of the cucurbiturils, this is a slow process with more than 10 recrystallisations required to purify cucurbit[7]uril. As shown in the German patents cucurbit[6]uril can be obtained in a relatively pure state from a single recystallisation process.
The present invention provides a method for producing a range of cucurbit[n]urils and cucurbit[s,u]urils. The synthesis method results in the production of a number of cucurbit[n]urils and cucurbit[s,u]urils that have never before been produced or isolated. Separation is possible via chromatography and/or selective precipitation. The product cucurbit[n]urils and cucurbit[s,u]urils are stable to vigorous reaction conditions over a wide range of pH values. They are soluble in aqueous acid or aqueous salt solutions. The method gives cucurbiturils in much larger yields than previously possible. The use of templating compounds allows a degree of control over the relative amounts of the different cucurbit[n]urils being produced.

[3] = binding of dioxane in aqueous solutions
From the text: This dioxane binding properly can form the basis of processes for the removal of dioxane. According to a further aspect of the present invention, the present invention provides a process for removing dioxane from a fluid comprising contacting the fluid with cucurbit[6]uril and/or cucurbit[7]uril.

Row | Compound | uptake of carbon monoxide [1] | dissolution in salt solution out of a mixture containing cucurbit[5-8]urils [2] | binding of dioxane [3]
1 | O=C1N2CN3C(=O)N4CN5C(=O)N6CN7C(=O)N8CN9C(=O)N%10CN1C1C2N2CN%11C(=O)N(CN%12C(=O)N(CN%13C(=O)N(CN%14C(=O)N(CN1C2=O)C%10C9%14)C8C7%13)C6C5%12)C4C3%11 (centres unmarked) [cucurbit[5]uril] | has shown uptake of carbon monoxide |  | 
2 | O=C1N2CN3C(=O)N4CN5C(=O)N6CN7C(=O)N8CN9C(=O)N%10CN%11C(=O)N%12CN1C1C2N2CN%13C(=O)N(CN%14C(=O)N(CN%15C(=O)N(CN%16C(=O)N(CN%17C(=O)N(CN1C2=O)C%12C%11%17)C%10C9%16)C8C7%15)C6C5%14)C4C3%13 (centres unmarked) [cucurbit[6]uril] |  | dissolving cucurbit[6 or 7]uril out of the complex mixture | bind dioxane
3 | cucurbit[7]uril |  | dissolving cucurbit[6 or 7]uril out of the complex mixture | bind dioxane
